# Laboratory results reported in patent EP2924040A1, “2-Amino-1-(o-tolyl)pyrrolo[3,2-b]quinoxaline-3-carboxamide derivates” (Universität Zürich, priority 2014, dated 2015).
# What was measured:
# Type in all cases: cell-based
# [1] = system: Colon HT29; assay: NCI DTP Human Tumor Cell Line Screen (SRB); conditions: HT-29, Colon HT29, 48 h
# Procedure: (§1) Compound 2 was further screened against cancer cell lines by the National Cancer Institute (NCI). This screen was performed as per the description provided at http://dtp.nci.nih.gov/branches/btb/ivclsp.html. "The NCI 60 panel cell lines were grown in RPMI 1640 medium supplemented with 5% (v/v) fetal bovine serum and 2 mM L-glutamine at 37° C, 5 % CO2, 95 % air and 100 % relative humidity. Cells were seeded at 5,000 - 40,000 cells/well depending on their doubling time. After 24 hours of incubation, DMSO stock solutions of the compounds (400X) were added at 5 different concentrations (in […] serial dilutions). After 48 h cells were fixed with trichloroacetic acid (10% or 16% final concentration for adherent cells and suspension cells respectively) and incubated for 60 minutes at 4°C. After discarding the supernatant, plates were washed with water (5x) and air dried. Sulforhodamine B (SRB) solution (100 µl) at 0.4 % (w/v) in 1% acetic acid was added to each well and incubated for 10 minutes at 4°C, followed by washing with 1% acetic acid (5x) and air drying. The bound stain was solubilized with 10mM trizma base and determined by absorbance measurement on an automated plate reader at a wavelength of 515 nm. The percentage growth inhibition was calculated as followed, being Tz time zero measurements, C control growth measurements and Ti test growth experiments in the present of the drug. [(Ti-Tz)/(C-Tz)] x 100 for concentrations for which Ti>/=Tz [(Ti-Tz)/Tz] x 100 for concentrations for which Ti<Tz.
# (§2) Three dose response parameters were calculated for each cell line. Growth inhibition of 50% (GI50) is calculated from [(Ti-Tz)/(C-Tz)] x 100 = 50 and corresponds to the drug concentration required in order to reduce by 50% the net protein increase in comparison to the control experiments. Total growth inhibition (TGI) is calculated from Ti = Tz. The LC50 indicates the drug concentration needed to reduce by 50% the measured protein at the end of the drug treatment as compared to that of the beginning and is derived from [(Ti-Tz)/Tz] x 100 = -50." Table 2: GI50 in a selection of cancer cell lines of the National Cancer Institute for compound 2
# [2] = system: NSCLC HOP92; assay: NCI DTP Human Tumor Cell Line Screen (SRB); conditions: HOP-92, NSCLC HOP92, 48 h
# Procedure: as §1, §2
# [3] = system: Renal A498; assay: NCI DTP Human Tumor Cell Line Screen (SRB); conditions: Renal A498, 48 h
# Procedure: as §1, §2
# [4] = system: Breast HS578T; assay: NCI DTP Human Tumor Cell Line Screen (SRB); conditions: Hs-578T, 48 h
# Procedure: as §1, §2
# [5] = system: CNS SNB75; assay: NCI DTP Human Tumor Cell Line Screen (SRB); conditions: SNB-75, CNS SNB75, 48 h
# Procedure: as §1, §2
# [6] = system: Renal RXF393; assay: NCI DTP Human Tumor Cell Line Screen (SRB); conditions: RXF 393, Renal RXF393, 48 h
# Procedure: as §1, §2
# [7] = system: Leukemia K562; assay: NCI DTP Human Tumor Cell Line Screen (SRB); conditions: Leukemia K562, 48 h
# Procedure: as §1, §2
# [8] = system: Breast MDA-MB-231; assay: NCI DTP Human Tumor Cell Line Screen (SRB); conditions: Breast MDA-MB-231, 48 h
# Procedure: as §1, §2
# [9] = system: K562; assay: Cell culture and GI50 determination (resazurin); conditions: Homo sapiens, K562, 48 hour incubation
# Procedure: MDA-MB-231 (breast cancer) and KM12 (colon cancer) cells obtained from the UZH Cancer Institute, HOP-92 (lung cancer) cells purchased from the National Cancer Institute (NCl) and A498 (kidney cancer) cells obtained from Prof. Krek (Institute of Cell Biology, ETH Zurich) were cultured in Dulbecco's modified Eagle's medium (DMEM) supplemented with 10% (v/v) fetal bovine serum. K562 leukemia cells obtained from Dr. Silvio Hemmi (Institute of Molecular Life Sciences, UZH) were cultured using RPMI medium supplemented with 5% (v/v) fetal bovine serum. All the media was additionally supplemented with 100 units/mL of penicillin, 100µg/mL of streptomycin, 4.5 g/L glucose, 0.11g/L sodium pyrubate and 2mM glutamine and the cells were grown at 37 °C in 5% CO2 atmosphere with 80% relative humidity.
# In the case of K-562 leukemia cells, these were seeded at a density of 20,000 cells per well in 100µL of RMPI media in a 96 well microtiter plates. […] After 48 hour incubation, cell viability was assessed by measuring the ability of the cells to process resazurin. Resazurin was added to every well to obtain a final concentration of 86nmol/L, and after 3 hours, the fluorescence was quantified using a fluorescence microplate reader (Biotek, FLx800™) at the respective excitation and emission wavelength of 560 and 590 nm as described above. […]
smiles,measurement,setting,value
"Cc1ccc(O)cc1-n1c(N)c(C(N)=O)c2nc3ccccc3nc21 [Compound 2, 2-Amino-1-(5-hydroxy-2-methylphenyl)-1H-pyrrolo[2,3-b]quinoxaline-3-carboxamide]",GI50,[1],244 nM
same,GI50,[2],152 nM
same,GI50,[3],162 nM
same,GI50,[4],100 nM
same,GI50,[5],28 nM
same,GI50,[6],361 nM
same,GI50,[7],229 nM
same,GI50,[8],317 nM
same,GI50,[9],1050 nM
